From ChEMBL document CHEMBL1143296, “Thienopyrimidine-based dual EGFR/ErbB-2 inhibitors” (Bioorg Med Chem Lett, 2009)

What was measured:
HN5 [1] = test: Antiproliferative activity against human HN5 cells expressing EGFR after 72 hrs by CTG assay; conditions: HN5, 72 h
HFF [2] = test: Antiproliferative activity against HFF after 72 hrs by CTG assay; conditions: Homo sapiens
[3] = target: Epidermal growth factor receptor (Homo sapiens, UniProt P00533)
[4] = target: T1, Receptor tyrosine-protein kinase erbB-2 (Homo sapiens, UniProt P04626)
T1 sequence (P04626 whole entry): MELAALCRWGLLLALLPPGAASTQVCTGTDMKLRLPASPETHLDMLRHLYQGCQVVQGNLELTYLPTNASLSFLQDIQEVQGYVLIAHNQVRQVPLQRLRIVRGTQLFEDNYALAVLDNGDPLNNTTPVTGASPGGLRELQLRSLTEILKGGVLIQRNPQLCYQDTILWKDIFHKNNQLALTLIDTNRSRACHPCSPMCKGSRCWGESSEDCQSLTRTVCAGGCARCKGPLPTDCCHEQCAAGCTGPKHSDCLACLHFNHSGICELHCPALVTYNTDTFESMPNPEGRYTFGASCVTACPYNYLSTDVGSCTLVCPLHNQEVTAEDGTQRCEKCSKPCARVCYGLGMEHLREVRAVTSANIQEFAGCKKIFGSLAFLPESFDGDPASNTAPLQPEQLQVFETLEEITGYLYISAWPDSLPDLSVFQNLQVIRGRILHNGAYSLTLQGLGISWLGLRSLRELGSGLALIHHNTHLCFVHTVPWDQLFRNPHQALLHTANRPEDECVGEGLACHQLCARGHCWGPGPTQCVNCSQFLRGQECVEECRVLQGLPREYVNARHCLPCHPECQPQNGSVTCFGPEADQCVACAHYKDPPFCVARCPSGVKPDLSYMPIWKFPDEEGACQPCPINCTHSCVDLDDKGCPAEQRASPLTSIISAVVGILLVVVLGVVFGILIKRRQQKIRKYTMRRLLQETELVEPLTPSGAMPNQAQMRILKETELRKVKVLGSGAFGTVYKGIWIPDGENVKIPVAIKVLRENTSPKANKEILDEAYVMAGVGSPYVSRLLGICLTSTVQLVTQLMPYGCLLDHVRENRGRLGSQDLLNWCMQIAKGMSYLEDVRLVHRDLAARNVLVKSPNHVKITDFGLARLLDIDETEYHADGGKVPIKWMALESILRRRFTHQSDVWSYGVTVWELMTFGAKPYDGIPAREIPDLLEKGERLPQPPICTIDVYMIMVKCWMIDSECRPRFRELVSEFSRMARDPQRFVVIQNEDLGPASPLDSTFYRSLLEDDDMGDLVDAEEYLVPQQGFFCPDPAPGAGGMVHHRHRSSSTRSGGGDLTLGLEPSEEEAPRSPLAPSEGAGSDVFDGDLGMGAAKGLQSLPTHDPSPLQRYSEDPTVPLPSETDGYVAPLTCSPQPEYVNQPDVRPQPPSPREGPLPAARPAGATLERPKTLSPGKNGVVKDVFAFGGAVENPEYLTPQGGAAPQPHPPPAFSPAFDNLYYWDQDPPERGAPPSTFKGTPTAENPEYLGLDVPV

BT-474 [5] = test: Antiproliferative activity against human BT474 cells expressing ErbB2 after 72 hrs by CTG assay; conditions: BT-474, 72 h
HN5 [6] = test: Antiproliferative activity against human HN5 cells expressing EGFR by MEB assay
HFF [7] = test: Antiproliferative activity against HFF after 72 hrs by MEB assay; conditions: Homo sapiens
BT-474 [8] = test: Antiproliferative activity against human BT474 cells expressing ErbB2 by MEB assay
[9] = target: T1, Receptor tyrosine-protein kinase erbB-2; test: Inhibition of ErbB2 intracellular autophosphorylation of ErbB2 in human BT474 cells by DELFIA assay; format: cell-based, BT-474

Epidermal growth factor receptor, sequence (P00533 whole entry): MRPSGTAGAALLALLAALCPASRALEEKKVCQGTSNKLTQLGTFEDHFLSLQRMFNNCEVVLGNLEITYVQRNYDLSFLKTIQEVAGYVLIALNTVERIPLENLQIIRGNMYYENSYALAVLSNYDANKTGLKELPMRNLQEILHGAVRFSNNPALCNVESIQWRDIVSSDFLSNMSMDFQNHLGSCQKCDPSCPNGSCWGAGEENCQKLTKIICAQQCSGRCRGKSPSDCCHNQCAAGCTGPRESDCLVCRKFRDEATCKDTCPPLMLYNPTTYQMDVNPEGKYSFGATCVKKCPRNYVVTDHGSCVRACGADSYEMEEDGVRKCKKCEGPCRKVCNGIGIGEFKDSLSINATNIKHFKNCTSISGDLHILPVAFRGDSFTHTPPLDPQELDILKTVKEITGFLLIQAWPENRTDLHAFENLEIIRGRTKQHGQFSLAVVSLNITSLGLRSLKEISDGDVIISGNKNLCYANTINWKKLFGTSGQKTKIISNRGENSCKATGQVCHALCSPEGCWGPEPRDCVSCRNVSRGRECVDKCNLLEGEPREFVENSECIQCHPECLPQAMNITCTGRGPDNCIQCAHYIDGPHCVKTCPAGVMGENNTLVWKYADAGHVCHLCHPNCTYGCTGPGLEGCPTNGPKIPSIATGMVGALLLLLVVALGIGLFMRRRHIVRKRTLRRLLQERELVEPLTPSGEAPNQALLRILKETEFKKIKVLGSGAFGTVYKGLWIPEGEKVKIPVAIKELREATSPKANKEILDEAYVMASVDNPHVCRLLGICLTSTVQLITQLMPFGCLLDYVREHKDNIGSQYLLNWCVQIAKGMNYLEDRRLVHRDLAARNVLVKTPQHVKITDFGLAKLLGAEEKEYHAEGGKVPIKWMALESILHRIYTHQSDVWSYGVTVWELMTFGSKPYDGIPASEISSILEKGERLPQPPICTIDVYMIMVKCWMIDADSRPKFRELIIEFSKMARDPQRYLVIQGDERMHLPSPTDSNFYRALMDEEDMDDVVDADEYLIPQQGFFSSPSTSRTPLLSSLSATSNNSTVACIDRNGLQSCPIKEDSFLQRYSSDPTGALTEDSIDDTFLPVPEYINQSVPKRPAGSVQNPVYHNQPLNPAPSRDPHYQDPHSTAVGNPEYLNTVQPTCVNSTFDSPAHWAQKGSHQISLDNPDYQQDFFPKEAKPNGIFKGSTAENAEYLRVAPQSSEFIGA

Row | Structure (SMILES) | IC50 [3] [nM] | IC50 [4] [nM] | IC50 (BT-474 [5]) [nM] | IC50 (BT-474 [8]) [nM] | IC50 [9] [nM] | IC50 (HN5 [1]) [nM] | IC50 (HFF [2]) [nM] | IC50 (HN5 [6]) [nM] | IC50 (HFF [7]) [nM]
1 | Fc1cccc(COc2ccc(Nc3ncnc4cc(-c5cccs5)sc34)cc2Cl)c1 | 8 | 113 | 5770 | – | – | 2190 | 10700 | – | –
2 | OCc1ccc(-c2cc3ncnc(Nc4ccc(OCc5cccc(F)c5)c(Cl)c4)c3s2)o1 | 3 | 122 | – | 720 | – | – | – | 100 | 9390
3 | N#CCNCc1ccc(-c2cc3ncnc(Nc4ccc(OCc5cccc(F)c5)c(Cl)c4)c3s2)o1 | – | 68 | – | – | – | – | – | – | –
4 | Fc1cccc(COc2ccc(Nc3ncnc4cc(-c5ccc[nH]5)sc34)cc2Cl)c1 | 68 | 121 | – | 540 | 826 | – | – | 570 | 2370
5 | CS(=O)(=O)CCNCc1cc(-c2cc3ncnc(Nc4ccc(OCc5cccc(F)c5)c(Cl)c4)c3s2)cs1 | 3 | 31 | – | 600 | – | – | – | 100 | > 30000
6 | CN(C)Cc1ccc(-c2cc3ncnc(Nc4ccc(OCc5cccc(F)c5)c(Cl)c4)c3s2)o1 | 2 | 146 | 1880 | – | – | 1220 | 4460 | – | –
7 | CS(=O)(=O)CCNCc1ccc(-c2cc3ncnc(Nc4ccc(OCc5cccc(F)c5)c(Cl)c4)c3s2)o1 | 1 | 71 | 420 | – | – | 410 | > 30000 | – | –
8 | CS(=O)(=O)CCNCc1cc(-c2cc3ncnc(Nc4ccc(OCc5cccc(F)c5)c(Cl)c4)c3s2)co1 | – | – | – | 730 | – | – | – | – | 7950
9 | Fc1cccc(COc2ccc(Nc3ncnc4cc(-c5ccco5)sc34)cc2Cl)c1 | 10 | 709 | 21200 | – | – | 8090 | > 30000 | – | –
10 | CS(=O)(=O)CCNCc1ccc(-c2cc3c(Nc4ccc(OCc5cccc(F)c5)c(Cl)c4)ncnc3s2)o1 | 12 | 6 | 420 | – | – | 420 | 19500 | – | –
11 | CS(=O)(=O)CCNCc1ccc(-c2cc3c(Nc4ccc(OCc5cccc(F)c5)c(Cl)c4)ncnc3s2)s1 | 96 | 95 | – | – | – | – | – | – | –
12 | Fc1cccc(COc2ccc(Nc3ncnc4sc(-c5ccc(CNCc6ccccc6)o5)cc34)cc2Cl)c1 | 54 | 898 | – | – | – | – | – | – | –
13 | CN1CCN(Cc2ccc(-c3cc4ncnc(Nc5ccc(OCc6cccc(F)c6)c(Cl)c5)c4s3)o2)CC1 [GW784684X] | 5 | 250 | – | – | – | – | – | – | –
14 | CS(=O)(=O)CCNCc1ccc(-c2ccc3ncnc(Nc4ccc(OCc5cccc(F)c5)c(Cl)c4)c3c2)o1 [LAPATINIB DITOSYLATE] | – | – | – | 100 | – | – | – | – | –

Second part, led by results:

Row | IC50 [3] [nM] | IC50 [4] [nM] | IC50 (BT-474 [5]) [nM] | IC50 (BT-474 [8]) [nM] | IC50 [9] [nM] | Structure (SMILES) | IC50 (HN5 [1]) [nM] | IC50 (HFF [2]) [nM] | IC50 (HN5 [6]) [nM] | IC50 (HFF [7]) [nM]
15 | 4 | 76 | – | – | – | CN(C)Cc1ccc(-c2cc3ncnc(Nc4ccc(OCc5cccc(F)c5)c(Cl)c4)c3s2)[nH]1 | – | – | – | –
16 | 6 | 68 | – | – | – | CCNCc1ccc(-c2cc3ncnc(Nc4ccc(OCc5cccc(F)c5)c(Cl)c4)c3s2)[nH]1 | – | – | – | –
17 | 7 | 113 | 630 | – | 431 | CS(=O)(=O)CCNCc1ccc(-c2cc3ncnc(Nc4ccc(OCc5cccc(F)c5)c(Cl)c4)c3s2)[nH]1 | 770 | 3730 | – | –
18 | 115 | 203 | – | 1980 | – | Fc1cccc(COc2ccc(Nc3ncnc4sc(-c5ccc[nH]5)cc34)cc2Cl)c1 | – | – | 2710 | > 3000
19 | 68 | 246 | – | – | – | CN(C)Cc1ccc(-c2cc3c(Nc4ccc(OCc5cccc(F)c5)c(Cl)c4)ncnc3s2)[nH]1 | – | – | – | –
20 | 121 | 111 | – | – | – | CCNCc1ccc(-c2cc3c(Nc4ccc(OCc5cccc(F)c5)c(Cl)c4)ncnc3s2)[nH]1 | – | – | – | –
21 | 138 | 153 | – | – | – | CS(=O)(=O)CCNCc1ccc(-c2cc3c(Nc4ccc(OCc5cccc(F)c5)c(Cl)c4)ncnc3s2)[nH]1 | – | – | – | –
22 | 304 | 299 | – | – | – | CS(=O)(=O)CCNCc1cc(-c2cc3c(Nc4ccc(OCc5cccc(F)c5)c(Cl)c4)ncnc3s2)cs1 [GSK-300014A] | – | – | – | –
23 | 15 | 14 | > 30000 | – | – | Fc1cccc(COc2ccc(Nc3ncnc4sc(-c5ccco5)cc34)cc2Cl)c1 [GSK-969786A] | > 30000 | > 30000 | – | –
24 | 9 | 43 | 3220 | – | – | Fc1cccc(COc2ccc(Nc3ncnc4sc(-c5cccs5)cc34)cc2Cl)c1 [GW684626B] | 10100 | 9720 | – | –
